From patent US20130209543A1, “ENHANCED TREATMENT REGIMENS USING MTOR INHIBITORS” (Intellikine LLC, priority 2011, published 2013)

Experiment: Phase I clinical trial: safety, related treatment-emergent adverse events, patients n (%)
Format: in vivo
[1] = Total QW Dosing, N = 15, listed as Cpd A
[2] = all 3 intermittent dosing regimens, n=35

Description: Safety, maximum tolerated dose (MTD), pharmacokinetics (PK) and preliminary antitumor activity were evaluated.
Pharmacodynamic (PD) endpoints were evaluated in surrogate (peripheral blood cells [PBCs], skin) and tumor tissues for the phosphorylation of TORC1-dependent markers (4EBP1/S6), and TORC2-dependent markers (AKT/PRAS40).

## CC(C)n1nc(-c2ccc3oc(N)nc3c2)c2c(N)ncnc21 [compound A]
6 mg/3W, N = 3
  Asthenia: 0 (0%)
  Asthenia (second line): 0 (0%)
  Catheter site inflammation: 0 (0%)
  Catheter site pain: 0 (0%)
  Decreased appetite: 0 (0%)
  Diarrhoea: 0 (0%)
  Dry skin: 0 (0%)
  Dysgeusia: 0 (0%)
  Dyspnoea: 0 (0%)
  Fatigue: 0 (0%)
  Headache: 0 (0%)
  Hypercholesterolaemia: 0 (0%)
  Hypertransaminasaemia: 0 (0%)
  Hypertriglyceridaemia: 0 (0%)
  Hypomagnesaemia: 0 (0%)
  Hypotension: 0 (0%)
  Low fever: 0 (0%)
  Lymphopenia: 0 (0%)
  Palmar-plantar erythrodysaesthesia syndrome: 0 (0%)
  Patients Reporting at Least One Related TEAE: 3 (100%)
  Pyrexia: 0 (0%)
  Rash macular: 0 (0%)
  Urinary tract infection: 0 (0%)
7 mg/5W, N = 3
  Nausea: 0 (0%)
  Nausea (second line): 1 (33%)
  Urine tract infection: 0 (0%)
  Vomiting: 0 (0%)
7 mg/week, N = 3
  Patients Reporting at Least One Related TEAE: 3 (100%)
9 mg/3W, N = 5
  Alanine aminotransferase increased: 0 (0%)
  Asthenia: 1 (20%)
  Asthenia (second line): 0 (0%)
  Catheter site inflammation: 0 (0%)
  Catheter site pain: 0 (0%)
  Decreased appetite: 0 (0%)
  Diarrhoea: 1 (20%)
  Dry skin: 1 (20%)
  Dysgeusia: 0 (0%)
  Dyspnoea: 1 (20%)
  Fatigue: 0 (0%)
  Headache: 0 (0%)
  Hyperbilirubinaemia: 0 (0%)
  Hypercholesterolaemia: 1 (20%)
  Hyperglycaemia: 1 (20%)
  Hypertransaminasaemia: 1 (20%)
  Hypertriglyceridaemia: 1 (20%)
  Hypomagnesaemia: 1 (20%)
  Hypotension: 1 (20%)
  Low fever: 0 (0%)
  Lymphopenia: 1 (20%)
  Mucosal inflammation: 2 (40%)
  Nausea: 2 (40%)
  Palmar-plantar erythrodysaesthesia syndrome: 1 (20%)
  Patients Reporting at Least One Related TEAE: 4 (80%)
  Platelet count decreased: 0 (0%)
  Pruritus: 2 (40%)
  Pyrexia: 0 (0%)
  Rash: 3 (60%)
  Rash macular: 0 (0%)
  Urinary tract infection: 1 (20%)
  Vomiting: 2 (40%)
10 mg/5W, N = 3
  Diarrhoea: 0 (0%)
  Nausea (second line): 0 (0%)
  Rash: 0 (0%)
10 mg/week, N = 3
  Mucosal inflammation: 0 (0%)
12 mg/3W, N = 3
  Alanine aminotransferase increased: 0 (0%)
  Asthenia (second line): 0 (0%)
  Diarrhoea: 0 (0%)
  Dry skin: 0 (0%)
  Dyspnoea: 0 (0%)
  Fatigue: 0 (0%)
  Headache: 0 (0%)
  Hyperbilirubinaemia: 0 (0%)
  Hypercholesterolaemia: 0 (0%)
  Hypertransaminasaemia: 0 (0%)
  Hypertriglyceridaemia: 0 (0%)
  Hypomagnesaemia: 0 (0%)
  Hypotension: 0 (0%)
  Low fever: 0 (0%)
  Lymphopenia: 0 (0%)
  Palmar-plantar erythrodysaesthesia syndrome: 0 (0%)
  Platelet count decreased: 0 (0%)
  Pyrexia: 0 (0%)
  Rash: 0 (0%)
  Urinary tract infection: 0 (0%)
  Vomiting: 0 (0%)
15 mg/week, N = 3
  Patients Reporting at Least One Related TEAE: 3 (100%)
16 mg/3W, N = 3
  Alanine aminotransferase increased: 0 (0%)
  Asthenia (second line): 1 (33%)
  Catheter site inflammation: 0 (0%)
  Catheter site pain: 0 (0%)
  Decreased appetite: 0 (0%)
  Dry skin: 0 (0%)
  Dysgeusia: 0 (0%)
  Dyspnoea: 0 (0%)
  Hyperbilirubinaemia: 0 (0%)
  Hypercholesterolaemia: 0 (0%)
  Hypertransaminasaemia: 0 (0%)
  Hypertriglyceridaemia: 0 (0%)
  Hypomagnesaemia: 0 (0%)
  Hypotension: 0 (0%)
  Lymphopenia: 0 (0%)
  Nausea: 0 (0%)
  Palmar-plantar erythrodysaesthesia syndrome: 0 (0%)
  Platelet count decreased: 0 (0%)
  Pruritus: 0 (0%)
  Rash: 0 (0%)
  Rash macular: 0 (0%)
  Urinary tract infection: 0 (0%)
  Vomiting: 0 (0%)
20 mg Q3D
  Dose limiting toxicity: Mucositis
30 mg/week, N = 3
  Nausea: 3 (100%)
  Patients Reporting at Least One Related TEAE: 3 (100%)
40 mg QW
  Dose limiting toxicity: Asthenia
40 mg QW, 20 mg QD×3d QW and 13 mg QD×5d QW cohorts
  Dose limiting toxicities: Grade (G) 3 asthenia and G3 mucositis
Total QD Dosing, N = 25
  Catheter site inflammation: 0 (0%)
  Catheter site pain: 0 (0%)
  Diarrhea: 0 (0%)
  Fatigue: 0 (0%)
  Headache: 0 (0%)
  Hyperbilirubinaemia: 0 (0%)
  Hypertransaminasaemia: 0 (0%)
  Hypertriglyceridaemia: 0 (0%)
  Hypomagnesaemia: 0 (0%)
  Hypotension: 0 (0%)
  Low fever: 0 (0%)
  Malaise: 0 (0%)
  Nausea: 0 (0%)
  Oral discomfort: 0 (0%)
  Palmar-plantar erythrodysaesthesia syndrome: 0 (0%)
  Platelet count decreased: 0 (0%)
  Pyrexia: 0 (0%)
  Rash: 0 (0%)
  Rash macular: 0 (0%)
  Urinary tract infection: 0 (0%)
  Urine tract infection: 0 (0%)
  Vomiting: 0 (0%)
  Weakness: 0 (0%)
Total QDx3d QW, N = 14
  Asthenia (second line): 1 (7%)
  Coagulopathy: 0 (0%)
  Confusional state: 0 (0%)
  Cough: 0 (0%)
  Diarrhea: 0 (0%)
  Dizziness: 0 (0%)
  Dyspnoea exertional: 0 (0%)
  Eye infection: 0 (0%)
  Gastritis: 0 (0%)
  Gravitational oedema: 0 (0%)
  Hypocalcaemia: 0 (0%)
  Insomnia: 0 (0%)
  Malaise: 0 (0%)
  Nausea: 0 (0%)
  Oral discomfort: 0 (0%)
  Orthostatic hypotension: 0 (0%)
  Panniculitis: 0 (0%)
  Polyuria: 0 (0%)
  Rash: 0 (0%)
  Skin discolouration: 0 (0%)
  Skin exfoliation: 0 (0%)
  Urine tract infection: 0 (0%)
  Vomiting: 0 (0%)
  Weakness: 0 (0%)
  Weight decreased: 0 (0%)
Total QDx5d QW, N = 6
  Catheter site inflammation: 0 (0%)
  Catheter site pain: 0 (0%)
  Coagulopathy: 0 (0%)
  Confusional state: 0 (0%)
  Cough: 0 (0%)
  Diarrhea: 0 (0%)
  Dizziness: 0 (0%)
  Dyspnoea exertional: 0 (0%)
  Eye infection: 0 (0%)
  Fatigue: 0 (0%)
  Gastritis: 0 (0%)
  Gravitational oedema: 0 (0%)
  Headache: 0 (0%)
  Hyperbilirubinaemia: 0 (0%)
  Hypertransaminasaemia: 0 (0%)
  Hypertriglyceridaemia: 0 (0%)
  Hypocalcaemia: 0 (0%)
  Hypomagnesaemia: 0 (0%)
  Hypotension: 0 (0%)
  Insomnia: 0 (0%)
  Low fever: 0 (0%)
  Malaise: 0 (0%)
  Nausea (second line): 1 (17%)
  Oral discomfort: 0 (0%)
  Orthostatic hypotension: 0 (0%)
  Palmar-plantar erythrodysaesthesia syndrome: 0 (0%)
  Panniculitis: 0 (0%)
  Platelet count decreased: 0 (0%)
  Polyuria: 0 (0%)
  Pyrexia: 0 (0%)
  Rash: 0 (0%)
  Rash macular: 0 (0%)
  Skin discolouration: 0 (0%)
  Skin exfoliation: 0 (0%)
  Urinary tract infection: 0 (0%)
  Weakness: 0 (0%)
  Weight decreased: 0 (0%)
Total QW Dosing, N = 15
  Aspartate aminotransferase increased: 2 (13%)
  Asthenia: 2 (13%)
  Catheter site inflammation: 0 (0%)
  Catheter site pain: 0 (0%)
  Coagulopathy: 0 (0%)
  Confusional state: 0 (0%)
  Cough: 0 (0%)
  Diarrhoea: 3 (20%)
  Dizziness: 0 (0%)
  Dyspnoea exertional: 0 (0%)
  Eye infection: 0 (0%)
  Fatigue: 0 (0%)
  Gastritis: 0 (0%)
  Gravitational oedema: 0 (0%)
  HYPERGLYCEMIA: 2 (13%)
  Headache: 0 (0%)
  Hyperbilirubinaemia: 0 (0%)
  Hyperglycaemia: 5 (33%)
  Hypertransaminasaemia: 0 (0%)
  Hypertriglyceridaemia: 0 (0%)
  Hypocalcaemia: 0 (0%)
  Hypomagnesaemia: 0 (0%)
  Hypotension: 0 (0%)
  Insomnia: 0 (0%)
  Low fever: 0 (0%)
  Mucosal inflammation: 3 (20%)
  Nausea: 0 (0%)
  Orthostatic hypotension: 0 (0%)
  Palmar-plantar erythrodysaesthesia syndrome: 0 (0%)
  Panniculitis: 0 (0%)
  Patients Reporting at Least One Related TEAE: 13 (87%)
  Platelet count decreased: 0 (0%)
  Polyuria: 0 (0%)
  Pyrexia: 0 (0%)
  Rash macular: 0 (0%)
  Skin discolouration: 0 (0%)
  Skin exfoliation: 0 (0%)
  Urinary tract infection: 0 (0%)
  Urine tract infection: 0 (0%)
  Vomiting: 0 (0%)
  Weight decreased: 0 (0%)
[1]
  Nausea: 10 (67%)
  Vomiting: 5 (33%)
Total, N = 60
  Catheter site inflammation: 1 (2%)
  Catheter site pain: 1 (2%)
  Coagulopathy: 1 (2%)
  Confusional state: 1 (2%)
  Cough: 1 (2%)
  Diarrhea: 1 (2%)
  Dizziness: 1 (2%)
  Dyspnoea exertional: 1 (2%)
  Eye infection: 1 (2%)
  Fatigue: 1 (2%)
  Gastritis: 1 (2%)
  Gravitational oedema: 1 (2%)
  Headache: 1 (2%)
  Hyperbilirubinaemia: 1 (2%)
  Hypertransaminasaemia: 1 (2%)
  Hypertriglyceridaemia: 1 (2%)
  Hypocalcaemia: 1 (2%)
  Hypomagnesaemia: 1 (2%)
  Hypotension: 1 (2%)
  Insomnia: 1 (2%)
  Low fever: 1 (2%)
  Malaise: 1 (2%)
  Nausea: 1 (2%)
  Oral discomfort: 1 (2%)
  Orthostatic hypotension: 1 (2%)
  Palmar-plantar erythrodysaesthesia syndrome: 1 (2%)
  Panniculitis: 1 (2%)
  Platelet count decreased: 1 (2%)
  Polyuria: 1 (2%)
  Pyrexia: 1 (2%)
  Rash: 1 (2%)
  Rash macular: 1 (2%)
  Skin discolouration: 1 (2%)
  Skin exfoliation: 1 (2%)
  Urinary tract infection: 1 (2%)
  Urine tract infection: 1 (2%)
  Vomiting: 1 (2%)
  Weakness: 1 (2%)
  Weight decreased: 1 (2%)
[2]
  AE possibly related: asthenia: 23%
  AE possibly related: diarrhea: 20%
  AE possibly related: hyperglycemia: 37%
  AE possibly related: mucosal inflammation: 29%
  AE possibly related: nausea: 51%
  AE possibly related: rash: 23%
  AE possibly related: vomiting: 26%
All AEs reported
  reversibility of adverse events: reversible
Any regimen
  grade of the majority of AEs possibly related: Grade 1 or 2
